Here are results for six molecules from patent US20120149710A1, “SORTASE A INHIBITORS” (priority 2009, published 2012).

≈ marks a conversion by molar mass, not a printed value. Entries after “also recorded” stand apart in the source; their conditions may differ. Bounds are passed on as bounds.

The subject of one assay is S. aureus. The assay can be described thus: S. aureus culture growth in the presence of 500 μM inhibitor. The format is cell-based, Staphylococcus aureus. The settings on record: vs 2.5% DMSO control.
The subject of the next assay is S. aureus strain Newman. The assay can be described thus: MIC by microtiter broth dilution method. The format is cell-based. The settings on record: Staphylococcus aureus, read-out: MIC preventing S. aureus growth. In general terms: Dilution methods test growth across graded concentrations, often in twofold steps.
The target in another assay is SrtA (Staphylococcus aureus, UniProt Q2FV99). The format is biochemical. The settings on record: inhibitor 10-fold above IC50, then rapid dilution.
A further assay concerns the target S. aureus SrtA (Staphylococcus aureus, UniProt Q2FV99). The assay can be described thus: FRET assay of SrtA-catalyzed hydrolysis of Abz-LPETG-Dap(Dnp); IC50 / Ki app. The format is biochemical. The settings on record: for IC50: purified enzyme, FRET, read-out: IC50 for inhibition of S. aureus SrtA; for Ki: read-out: Ki app (apparent dissociation constant of enzyme-inhibitor complex, Morrison's equation), S. aureus SrtA.

In assay [1] the test system is SrtA activity in whole cells, S. aureus strain RN4220. The assay can be described thus: Cell adhesion assay: whole cell adhesion to IgG coated plates (SrtA activity in whole cells). The format is cell-based, Staphylococcus aureus. The settings on record: IgG coated microtiter plates.
Assay [2] deals with Bacillus anthracis sortase enzyme (BaSrtA) (Bacillus anthracis, UniProt P0DPQ5). The assay can be described thus: biochemical.
Assay [3] has as its target B. anthracis sortase A enzyme (Bacillus anthracis, UniProt P0DPQ5). As to the kind of experiment: cell-based. The settings on record: for EC50 (estimated from a single concentration): read-out: EC50 estimated from a single concentration.

Chain of S. aureus SrtA (Q2FV99 60-206): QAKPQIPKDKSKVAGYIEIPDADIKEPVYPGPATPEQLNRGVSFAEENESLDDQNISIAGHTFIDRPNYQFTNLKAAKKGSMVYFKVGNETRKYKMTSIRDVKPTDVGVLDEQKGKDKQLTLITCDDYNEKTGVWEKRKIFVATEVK
Chain of B. anthracis sortase A enzyme (P0DPQ5 whole entry, looked up): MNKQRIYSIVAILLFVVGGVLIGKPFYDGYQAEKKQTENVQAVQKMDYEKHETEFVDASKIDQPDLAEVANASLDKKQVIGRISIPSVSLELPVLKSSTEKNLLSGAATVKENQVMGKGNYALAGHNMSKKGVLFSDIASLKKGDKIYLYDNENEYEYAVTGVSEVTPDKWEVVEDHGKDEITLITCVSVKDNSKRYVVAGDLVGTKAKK
Chain of Bacillus anthracis sortase enzyme (BaSrtA) (P0DPQ5 whole entry, looked up): as above
Chain of SrtA (Q2FV99 60-206): as the sequence (Q2FV99 60-206) above

On to `Cc1ccc(N2C(=O)/C(=C/c3cc([N+](=O)[O-])cc(Br)c3O)SC2=S)c(C)c1` [compound 1], for which the “Effect on S. aureus growth in cell culture, in words” value (shortened to “Effect on S. aureus growth”) with S. aureus is “toxic”. Also, the MIC with S. aureus strain Newman is about 10 µM (≈ 4.65 µg/mL). In addition, the “Enzyme activity recovered immediately after dilution” value on SrtA came out at 84%.

On to `Cc1oc(CN)nc1C(=O)c1nccs1` [compound 4], for which the IC50 on S. aureus SrtA came out at 7200 nM. In addition, the “Effect on SrtA-dependent adherence / protein display in whole cells” value in assay [1] is “potent effects; also recorded: inhibits protein display by SrtA in vivo”.

With `CC1=NN(c2ccccc2)C(=S)/C1=C/Nc1c(Br)cc(Br)cc1Br` [compound 3-12], the “Improvement of potency relative to lead 3” value on S. aureus SrtA (4-NO2 changed to 2,4,6-Br3) is given as “about 15 fold”. For the same molecule, at S. aureus SrtA, the IC50 is 300 nM. In addition, the Ki at S. aureus SrtA is 300 nM; in assay [2], 1700 nM. Further, the “Effect on S. aureus growth” value in the assay with S. aureus is “do not substantially affect bacterial growth; also recorded: do not impair microbial growth in cell culture”. In assay [3], the EC50 (estimated from a single concentration) was over 28000 nM.

On to `CCOc1c(SSc2ccccn2)cnn(-c2cccc(F)c2)c1=O` [2-59, 4-Ethoxy-2-(3-fluorophenyl)-5-(pyridin-2-yldisulfanyl)pyridazin-3(2H)-one], for which the EC50 (estimated from a single concentration) in assay [3] was over 8000 nM.

For the molecule `CCSc1c(S)cnn(-c2ccccc2)c1=O` [compound 2-9], on S. aureus SrtA, the “Inhibition of S. aureus SrtA, potency in words” value is recorded as “low micromolar”; the IC50 is 1400 nM; the Ki is 1400 nM. The “Effect on S. aureus growth” value in the assay on S. aureus is on record as “do not significantly inhibit S. aureus growth; also recorded: not bactericidal; also recorded: do not impair microbial growth in cell culture”. The Ki in assay [2] was about 300 nM.

For `CCOc1c(SSc2ccccn2)cnn(-c2ccccc2)c1=O` [compound 2-50, 4-Ethoxy-5-(2-pyridyldithio)-2-phenylpyridazin-3-one], the Ki at S. aureus SrtA is about 30 nM. In addition, in assay [3], the “Concentration giving near complete inhibition of sortase activity” value was “about 34 μM”, the EC50 is about 15000 nM and the EC50 (estimated from a single concentration) was over 8000 nM.

As a reminder, the MIC is the least concentration at which growth counts as inhibited. One may read the IC50 as the concentration needed to halve the response being measured. By EC50 is commonly meant the concentration that produces a half-maximal response. Low readings indicate an effect from little substance, high ones a need for much substance.
